Laboratory results published in ChEMBL document CHEMBL5696441 (Nat Chem Biol, 2011).

How the values were obtained:
[1] = molecular target: Serine/threonine-protein kinase PAK 6 (Homo sapiens) (UniProt Q9NQU5); assay: Inhibition of PAK6 (unknown origin) assessed as remaining activity at 1 uM by Kinome scan method relative to control
[2] = system: Hepatocyte growth factor receptor (Homo sapiens), P08581 [Y1235D]; assay: Inhibition of MET Y1235D mutant (unknown origin) assessed as remaining activity at 1 uM by Kinome scan method relative to control
[3] = molecular target: Serine/threonine-protein kinase PAK 2 (Homo sapiens) (UniProt Q13177); assay: Inhibition of PAK2 (unknown origin) assessed as remaining activity at 1 uM by Kinome scan method relative to control
[4] = molecular target: Serine/threonine-protein kinase Sgk3 (Homo sapiens) (UniProt Q96BR1); assay: Inhibition of human SGK3 assessed as residual activity at 1 uM using RBER-GSK3(14-27) as substrate in presence of 33P-ATP by ProQinase assay relative to control
[5] = molecular target: T1, Serine/threonine-protein kinase 17A (Homo sapiens) (UniProt Q9UEE5); assay: Inhibition of human STK17A assessed as residual activity at 1 uM using RB-CTF as substrate in presence of 33P-ATP by ProQinase assay relative to control
T1 sequence (whole entry): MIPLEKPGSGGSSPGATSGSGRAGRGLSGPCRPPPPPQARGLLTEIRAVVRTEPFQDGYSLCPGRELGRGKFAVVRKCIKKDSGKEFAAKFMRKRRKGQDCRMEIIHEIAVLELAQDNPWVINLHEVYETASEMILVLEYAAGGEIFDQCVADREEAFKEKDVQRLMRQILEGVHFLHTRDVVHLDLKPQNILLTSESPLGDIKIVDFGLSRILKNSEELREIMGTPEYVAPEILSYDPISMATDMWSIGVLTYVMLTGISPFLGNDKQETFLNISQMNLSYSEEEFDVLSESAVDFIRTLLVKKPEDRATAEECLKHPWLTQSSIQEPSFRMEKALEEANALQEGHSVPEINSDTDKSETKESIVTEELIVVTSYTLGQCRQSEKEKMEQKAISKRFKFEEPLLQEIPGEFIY

[6] = molecular target: Tyrosine-protein kinase receptor TYRO3 (Homo sapiens) (UniProt Q06418); assay: Inhibition of human TYRO3 assessed as residual activity at 1 uM using PolyEY as substrate in presence of 33P-ATP by ProQinase assay relative to control
[7] = molecular target: Dual specificity protein kinase CLK3 (Homo sapiens) (UniProt P49761); assay: Inhibition of human CLK3 assessed as residual activity at 1 uM using RB-S6P as substrate in presence of 33P-ATP by ProQinase assay relative to control
[8] = molecular target: T2, Serine/threonine-protein kinase TAO3 (Homo sapiens) (UniProt Q9H2K8); assay: Inhibition of human TAOK3 assessed as residual activity at 1 uM using 3xChocktide-PKC(19-31) as substrate in presence of 33P-ATP by ProQinase assay relative to control
T2 sequence (whole entry): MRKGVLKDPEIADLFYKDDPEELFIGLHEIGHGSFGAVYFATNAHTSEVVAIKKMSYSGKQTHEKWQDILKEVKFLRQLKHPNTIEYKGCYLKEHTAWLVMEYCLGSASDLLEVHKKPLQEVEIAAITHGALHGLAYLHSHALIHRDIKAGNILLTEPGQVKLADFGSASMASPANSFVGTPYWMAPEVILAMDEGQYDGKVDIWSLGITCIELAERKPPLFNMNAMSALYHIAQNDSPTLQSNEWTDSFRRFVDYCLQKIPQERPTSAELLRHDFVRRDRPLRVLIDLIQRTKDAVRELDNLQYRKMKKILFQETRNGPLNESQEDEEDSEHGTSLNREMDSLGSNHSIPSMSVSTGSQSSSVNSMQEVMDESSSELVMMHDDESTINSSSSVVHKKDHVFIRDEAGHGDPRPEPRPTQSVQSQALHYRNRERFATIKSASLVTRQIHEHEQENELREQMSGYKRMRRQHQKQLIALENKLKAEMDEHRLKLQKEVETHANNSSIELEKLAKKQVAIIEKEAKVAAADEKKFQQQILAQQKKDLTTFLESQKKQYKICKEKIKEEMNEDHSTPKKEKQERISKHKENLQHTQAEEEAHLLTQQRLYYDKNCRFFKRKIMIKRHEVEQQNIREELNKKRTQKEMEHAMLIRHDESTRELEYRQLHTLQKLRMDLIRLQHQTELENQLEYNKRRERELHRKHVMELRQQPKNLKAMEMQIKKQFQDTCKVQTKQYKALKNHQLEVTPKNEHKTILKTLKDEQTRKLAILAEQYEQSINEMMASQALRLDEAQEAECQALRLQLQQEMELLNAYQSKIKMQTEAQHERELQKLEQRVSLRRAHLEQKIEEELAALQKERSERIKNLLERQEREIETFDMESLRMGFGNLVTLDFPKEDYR

CYP2C9 = CYP2C9 (Homo sapiens, UniProt P11712); assay: Inhibition of CYP2C9 (unknown origin) at 10 uM relative to control; format: ADME
[9] = Anti-inflammatory activity against human derived high respond PBMC cells assessed as inhibition in stimulated TNF-alpha cytokine release incubated for 2 hrs in the presence of LPS/SEB/aCD28 by Luminex based sandwich immunoassay; format: functional, cell-based
[10] = molecular target: Focal adhesion kinase 1 (Homo sapiens) (UniProt Q05397); assay: Inhibition of FAK (unknown origin) assessed as remaining activity at 1 uM by Kinome scan method relative to control
[11] = molecular target: Serine/threonine-protein kinase Nek6 (Homo sapiens) (UniProt Q9HC98); assay: Inhibition of NEK6 (unknown origin) assessed as remaining activity at 1 uM by Kinome scan method relative to control
[12] = molecular target: Epidermal growth factor receptor (Homo sapiens) (UniProt P00533); assay: Inhibition of human EGFR assessed as residual activity at 1 uM using PolyEY as substrate in presence of 33P-ATP by ProQinase assay relative to control
[13] = molecular target: Mitogen-activated protein kinase kinase kinase 2 (Homo sapiens) (UniProt Q9Y2U5); assay: Inhibition of human MEKK2 assessed as residual activity at 1 uM using casein as substrate in presence of 33P-ATP by ProQinase assay relative to control
[14] = molecular target: Tyrosine-protein kinase ZAP-70 (Homo sapiens) (UniProt P43403); assay: Inhibition of human ZAP70 assessed as residual activity at 1 uM using polyEY as substrate in presence of 33P-ATP by ProQinase assay relative to control
[15] = molecular target: Tyrosine-protein kinase JAK1 (Homo sapiens) (UniProt P23458); assay: Inhibition of human JAK1 assessed as residual activity at 1 uM using RBER-IRStide as substrate in presence of 33P-ATP by ProQinase assay relative to control
[16] = system: Serine/threonine-protein kinase B-raf (Homo sapiens), P15056 [V600E]; assay: Inhibition of BRAF V600E mutant (unknown origin) assessed as remaining activity at 1 uM by Kinome scan method relative to control

Chain of Epidermal growth factor receptor (Homo sapiens) (P00533 whole entry): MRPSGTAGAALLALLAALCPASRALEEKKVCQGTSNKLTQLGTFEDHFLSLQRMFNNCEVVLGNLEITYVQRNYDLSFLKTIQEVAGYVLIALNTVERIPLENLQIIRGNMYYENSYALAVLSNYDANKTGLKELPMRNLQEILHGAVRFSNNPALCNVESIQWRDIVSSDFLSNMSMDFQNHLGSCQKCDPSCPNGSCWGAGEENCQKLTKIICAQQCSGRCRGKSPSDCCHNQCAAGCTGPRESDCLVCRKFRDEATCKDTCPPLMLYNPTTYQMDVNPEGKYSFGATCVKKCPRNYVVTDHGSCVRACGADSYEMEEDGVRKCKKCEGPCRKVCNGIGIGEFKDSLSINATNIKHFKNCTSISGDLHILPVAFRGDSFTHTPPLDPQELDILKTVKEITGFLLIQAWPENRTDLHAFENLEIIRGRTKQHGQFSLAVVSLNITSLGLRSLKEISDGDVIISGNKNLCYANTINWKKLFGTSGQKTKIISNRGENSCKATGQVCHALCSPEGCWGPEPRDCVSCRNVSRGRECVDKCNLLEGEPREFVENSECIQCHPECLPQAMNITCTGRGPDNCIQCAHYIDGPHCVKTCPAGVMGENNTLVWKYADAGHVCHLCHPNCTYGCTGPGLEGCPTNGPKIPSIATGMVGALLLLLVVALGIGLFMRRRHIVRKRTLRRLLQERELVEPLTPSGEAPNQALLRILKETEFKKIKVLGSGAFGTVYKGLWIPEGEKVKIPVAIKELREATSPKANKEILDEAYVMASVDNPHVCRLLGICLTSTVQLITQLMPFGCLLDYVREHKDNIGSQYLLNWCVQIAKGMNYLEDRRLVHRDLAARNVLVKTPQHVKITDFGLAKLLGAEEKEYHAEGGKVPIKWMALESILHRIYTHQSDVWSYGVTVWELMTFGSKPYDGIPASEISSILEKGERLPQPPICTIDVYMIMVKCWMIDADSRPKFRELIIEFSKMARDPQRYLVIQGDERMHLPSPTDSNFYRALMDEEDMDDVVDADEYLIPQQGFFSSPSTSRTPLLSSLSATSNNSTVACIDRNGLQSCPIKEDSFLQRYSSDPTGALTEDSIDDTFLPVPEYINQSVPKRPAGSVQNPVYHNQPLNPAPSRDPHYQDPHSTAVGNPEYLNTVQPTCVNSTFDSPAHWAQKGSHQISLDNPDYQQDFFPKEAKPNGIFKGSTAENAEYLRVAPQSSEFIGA
Chain of Focal adhesion kinase 1 (Homo sapiens) (Q05397 2-1052 limits assumed): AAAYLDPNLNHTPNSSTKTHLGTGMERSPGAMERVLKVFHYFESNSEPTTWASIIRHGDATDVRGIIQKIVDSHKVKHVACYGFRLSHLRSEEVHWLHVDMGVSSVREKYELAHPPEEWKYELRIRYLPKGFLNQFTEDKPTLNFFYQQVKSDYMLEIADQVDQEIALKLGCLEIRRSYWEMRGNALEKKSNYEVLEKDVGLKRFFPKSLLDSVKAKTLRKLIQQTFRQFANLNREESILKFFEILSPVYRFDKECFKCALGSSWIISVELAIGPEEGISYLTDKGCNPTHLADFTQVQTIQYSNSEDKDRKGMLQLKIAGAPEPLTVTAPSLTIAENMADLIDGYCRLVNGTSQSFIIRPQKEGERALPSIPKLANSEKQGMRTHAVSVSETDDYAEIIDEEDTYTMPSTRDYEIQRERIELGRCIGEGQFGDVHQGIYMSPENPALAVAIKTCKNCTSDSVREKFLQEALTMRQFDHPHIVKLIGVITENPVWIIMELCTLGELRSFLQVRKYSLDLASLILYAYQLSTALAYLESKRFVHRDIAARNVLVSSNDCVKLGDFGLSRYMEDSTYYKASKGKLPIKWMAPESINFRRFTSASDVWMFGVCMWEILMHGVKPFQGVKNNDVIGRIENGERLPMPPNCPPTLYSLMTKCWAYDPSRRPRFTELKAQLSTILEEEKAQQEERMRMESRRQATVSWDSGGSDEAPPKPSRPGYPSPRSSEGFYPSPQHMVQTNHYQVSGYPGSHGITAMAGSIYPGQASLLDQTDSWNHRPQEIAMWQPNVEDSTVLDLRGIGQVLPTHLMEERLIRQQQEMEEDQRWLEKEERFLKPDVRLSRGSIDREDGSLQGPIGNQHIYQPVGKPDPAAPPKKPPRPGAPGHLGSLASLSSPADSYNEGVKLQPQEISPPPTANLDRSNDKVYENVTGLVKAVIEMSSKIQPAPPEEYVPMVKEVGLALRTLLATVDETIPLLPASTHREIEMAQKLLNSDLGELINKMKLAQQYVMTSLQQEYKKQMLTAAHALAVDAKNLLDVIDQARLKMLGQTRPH
Chain of Tyrosine-protein kinase ZAP-70 (Homo sapiens) (P43403 whole entry): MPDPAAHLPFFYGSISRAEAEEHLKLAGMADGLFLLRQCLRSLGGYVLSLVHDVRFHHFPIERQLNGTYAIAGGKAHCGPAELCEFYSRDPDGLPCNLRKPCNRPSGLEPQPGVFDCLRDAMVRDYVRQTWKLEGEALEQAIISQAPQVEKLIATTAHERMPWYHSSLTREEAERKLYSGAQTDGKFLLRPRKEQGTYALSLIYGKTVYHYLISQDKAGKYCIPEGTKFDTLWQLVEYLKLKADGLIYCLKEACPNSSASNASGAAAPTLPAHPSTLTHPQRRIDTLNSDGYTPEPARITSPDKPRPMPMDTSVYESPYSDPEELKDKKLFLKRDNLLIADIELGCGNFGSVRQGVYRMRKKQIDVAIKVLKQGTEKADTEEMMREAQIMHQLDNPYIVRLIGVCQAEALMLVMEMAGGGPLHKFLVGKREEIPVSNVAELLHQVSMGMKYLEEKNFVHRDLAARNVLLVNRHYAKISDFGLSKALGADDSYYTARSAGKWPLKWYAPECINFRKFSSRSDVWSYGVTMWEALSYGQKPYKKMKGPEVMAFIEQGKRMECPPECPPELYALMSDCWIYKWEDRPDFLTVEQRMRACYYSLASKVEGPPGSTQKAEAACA
Chain of Serine/threonine-protein kinase Nek6 (Homo sapiens) (Q9HC98 whole entry): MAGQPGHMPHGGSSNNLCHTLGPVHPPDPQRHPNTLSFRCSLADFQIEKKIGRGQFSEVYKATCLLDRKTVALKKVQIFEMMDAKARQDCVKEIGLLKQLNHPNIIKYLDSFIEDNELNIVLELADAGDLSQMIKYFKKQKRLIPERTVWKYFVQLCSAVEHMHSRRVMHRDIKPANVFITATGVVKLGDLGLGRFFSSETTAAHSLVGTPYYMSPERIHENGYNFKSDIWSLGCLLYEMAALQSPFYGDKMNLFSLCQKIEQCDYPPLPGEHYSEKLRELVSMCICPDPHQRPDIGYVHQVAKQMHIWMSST
Chain of Tyrosine-protein kinase JAK1 (Homo sapiens) (P23458 whole entry): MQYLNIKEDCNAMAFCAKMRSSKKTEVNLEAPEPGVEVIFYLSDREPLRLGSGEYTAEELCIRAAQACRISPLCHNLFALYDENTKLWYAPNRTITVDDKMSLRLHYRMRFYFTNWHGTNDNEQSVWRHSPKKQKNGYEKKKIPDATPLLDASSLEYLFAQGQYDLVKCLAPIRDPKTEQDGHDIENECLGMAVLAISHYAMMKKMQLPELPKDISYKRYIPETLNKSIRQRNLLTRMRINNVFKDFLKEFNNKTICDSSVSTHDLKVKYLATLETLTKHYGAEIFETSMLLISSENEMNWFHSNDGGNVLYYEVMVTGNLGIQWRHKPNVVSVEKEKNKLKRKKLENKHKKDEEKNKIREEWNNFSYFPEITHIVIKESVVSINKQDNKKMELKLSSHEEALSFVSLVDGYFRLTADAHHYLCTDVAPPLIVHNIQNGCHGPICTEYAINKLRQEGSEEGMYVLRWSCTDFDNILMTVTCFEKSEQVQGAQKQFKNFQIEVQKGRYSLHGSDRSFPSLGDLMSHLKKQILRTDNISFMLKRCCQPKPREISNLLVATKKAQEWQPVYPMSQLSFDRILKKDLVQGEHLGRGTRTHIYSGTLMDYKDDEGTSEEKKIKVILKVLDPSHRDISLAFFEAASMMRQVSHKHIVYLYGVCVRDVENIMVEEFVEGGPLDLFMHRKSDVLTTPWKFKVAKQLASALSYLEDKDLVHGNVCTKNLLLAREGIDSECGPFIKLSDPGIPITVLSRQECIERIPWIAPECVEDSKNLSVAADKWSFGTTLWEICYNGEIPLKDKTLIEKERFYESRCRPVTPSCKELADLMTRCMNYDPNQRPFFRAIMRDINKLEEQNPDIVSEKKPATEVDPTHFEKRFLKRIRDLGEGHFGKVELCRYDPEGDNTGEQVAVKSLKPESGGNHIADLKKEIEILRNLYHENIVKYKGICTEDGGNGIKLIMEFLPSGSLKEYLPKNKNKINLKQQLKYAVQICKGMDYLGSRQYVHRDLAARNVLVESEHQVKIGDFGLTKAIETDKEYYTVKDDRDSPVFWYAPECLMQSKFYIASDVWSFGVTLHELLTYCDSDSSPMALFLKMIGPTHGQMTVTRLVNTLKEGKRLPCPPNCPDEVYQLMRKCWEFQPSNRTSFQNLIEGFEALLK
Chain of Serine/threonine-protein kinase PAK 2 (Homo sapiens) (Q13177 whole entry): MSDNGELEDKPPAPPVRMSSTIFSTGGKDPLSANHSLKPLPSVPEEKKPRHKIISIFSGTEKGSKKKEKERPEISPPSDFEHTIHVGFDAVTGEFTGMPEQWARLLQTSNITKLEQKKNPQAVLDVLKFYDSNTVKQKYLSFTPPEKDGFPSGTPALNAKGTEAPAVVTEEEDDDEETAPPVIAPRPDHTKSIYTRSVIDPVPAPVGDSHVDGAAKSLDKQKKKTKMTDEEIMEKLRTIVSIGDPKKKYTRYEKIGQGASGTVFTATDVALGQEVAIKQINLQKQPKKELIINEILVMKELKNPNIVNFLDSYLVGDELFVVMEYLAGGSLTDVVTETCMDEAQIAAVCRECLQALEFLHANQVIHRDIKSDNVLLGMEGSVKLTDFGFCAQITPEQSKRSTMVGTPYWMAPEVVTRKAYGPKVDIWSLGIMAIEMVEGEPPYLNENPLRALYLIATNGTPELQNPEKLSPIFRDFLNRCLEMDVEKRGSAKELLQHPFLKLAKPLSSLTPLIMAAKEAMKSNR

`O=C1c2ccc(Nc3ccc(F)cc3F)cc2CCc2ccc(OC[C@H](O)CO)cc21` [Skepinone-L] showed an Activity [1] of 99%, an Activity [2] of 97% and an Activity [3] of 100%. The Activity [4] was 102%, the Activity [5] was 77% and the Activity [6] was 108%. It also gave an Activity [7] of 88%, an Activity [8] of 102% and an inhibition at 10 µM (CYP2C9) of 65%. The IC50 [9] was 50 nM, the Activity [10] was 100% and the Activity [11] was 100%. The Activity [12] was 94%, the Activity [13] was 89% and the Activity [14] was 98%. The Activity [15] was 93% and the Activity [16] was 100%.
